# Reference: patent US12721809B2, “Formulation for treating ophthalmic conditions” (Guangzhou KangRui Biological Pharmaceutical Technology Co., …, priority 2021, dated 2026)
# Values joined by “and” are separate entries in the source; they are usually repeats but may differ in a detail not shown here. Identical values can stand only once.
# How the values were obtained:
# Format in all cases: physicochemical
# [1] = Solubility of KDR2-2 in different media
# [2] = Particle size of KDR2-2 API before and after pulverization (Malvern); conditions: for Particle size Dv (10) / Particle size Dv (50) / Particle size Dv (90): dry method (Mastersizer 3000); for D10 (μm) / D50 (μm) / D90 (μm): listed as KDR2-2 API
# Description: Particle sizes: KDR2-2 is a poorly soluble drug with large particle sizes. The drug substance should be micronized to meet the quality standards of KDR2-2 Suspension Eye Drop. The result of microscopic observation of KDR2-2 (Batch #CK0120554-02-03P-01-32-01) in 1% Kolliphor® HS 15 is shown in FIG. 1, and the particle sizes of KDR2-2 (Batch #CK0120554-02-03P-01-32-01) in 1% Kolliphor® HS 15 were measured by malvern and is presented in Table 4.
# (§1) The drug particle size for suspension eye drops should be reduced to level <10 μm in an attempt to avoid excessive lacrimation, the micronization process of drug substance was studied. The micronization process parameters of the jet are: injection pressure is 5 bar; crushing pressure is 3 bar. The particle size and distribution of the KDR2-2 API were measured before and after pulverization, to determine whether the API satisfies the formulation requirements after pulverization.
# as §1, with “studied. Certain amount of KDR2-2 API was taken and fed into a jet mill.” for “studied.”, “bar; the media for micronization is air.” for “bar.”, “was” for “were”, “pulverization using the dry method (Mastersizer 3000, Malvern),” for “pulverization,”
# [3] = API content/purity by liquid chromatography before and after pulverization; conditions: for HPLC peak (percentage of peak area), Impurity 1: Impurity 1 = Intermediate A; for HPLC peak (percentage of peak area), Impurity 2: Impurity 2 = Intermediate B
# Description: API content was determined by liquid chromatography, Diamonsil® plus-C18 column (4.6×150 mm, […]), mobile phase: acetonitrile (with 0.2‰ trifluoroacetic acid):water (with 0.2‰ trifluoroacetic acid), acetonitrile gradient 5-95%, time: 17 min, column temperature 20° C., detection wavelength 254 nm. The results are shown as follows and in FIGS. 5A-5B: […]
# [4] = KDR2-2 API after micronization (jet mill)
# [5] = KDR2-2 API before micronization
# [6] = after pulverization (jet mill, 5 bar/3 bar)
# [7] = before pulverization, in 1% Kolliphor® HS 15, batch CK0120554-02-03P-01-32-01
smiles,measurement,setting,value
"Nc1nccc(Oc2ccc3c(C(=O)Nc4cccc(C(F)(F)F)c4)cccc3n2)n1 [KDR2-2, 2-(2-Aminopyrimidin-4-yloxy)-N-(3-(trifluoromethyl)phenyl)quinoline-5-carboxamide]",solubility,"[1]; acetone, organic solvent or mixture",7700 to 11500 µg/mL
same,solubility,"[1]; acetone/water, aqueous with cosolvent or surfactant or cyclodextrin",7300 to 11000 µg/mL
same,solubility,"[1]; acetonitrile, organic solvent or mixture",1700 to 1900 µg/mL
same,solubility,"[1]; chloroform, organic solvent or mixture",< 1100 µg/mL
same,solubility,"[1]; dimethylsulfoxide, organic solvent or mixture",> 28000 µg/mL
same,solubility,"[1]; ethanol, organic solvent or mixture",2400 to 2700 µg/mL
same,solubility,"[1]; ethyl acetate, organic solvent or mixture",3800 to 4600 µg/mL
same,solubility,"[1]; iso-propyl alcohol, organic solvent or mixture",< 1100 µg/mL
same,solubility,"[1]; methanol, organic solvent or mixture",6300 to 9500 µg/mL
same,solubility,"[1]; methyl isobutyl ketone, organic solvent or mixture",1800 to 2200 µg/mL
same,solubility,"[1]; methyl tert-butyl ether, organic solvent or mixture",< 1200 µg/mL
same,solubility,"[1]; tetrahydrofuran, organic solvent or mixture",> 18000 µg/mL
same,solubility,"[1]; toluene, organic solvent or mixture",< 900 µg/mL
same,solubility,[1]; water,< 1100 µg/mL
same,Particle size Dv (10),[2]; [4],0.304 μm
same,Particle size Dv (50),[2]; [4],1.75 μm
same,Particle size Dv (90),[2]; [4],3.83 μm
same,Particle size Dv (10),[2]; [5],2.33 μm
same,Particle size Dv (50),[2]; [5],10.5 μm
same,Particle size Dv (90),[2]; [5],472 μm
same,D10 (μm),[2]; [6],0.957 μm and 0.949 μm and 0.946 μm
same,D50 (μm),[2]; [6],3.55 μm and 3.46 μm and 3.41 μm
same,D90 (μm),[2]; [6],8.03 μm and 7.59 μm and 7.47 μm
same,D10 (μm),[2]; [7],55.9 μm and 33.0 μm and 45.5 μm
same,D50 (μm),[2]; [7],162 μm and 105 μm and 138 μm
same,D90 (μm),[2]; [7],375 μm and 292 μm and 353 μm
same,"HPLC peak (percentage of peak area), KDR2-2",[3]; KDR2-2 API after micronization,Peak area % = 99.839%
same,"HPLC peak (percentage of peak area), Impurity 1",[3]; KDR2-2 API after micronization,Peak area % = 0.085%
same,"HPLC peak (percentage of peak area), Impurity 2",[3]; KDR2-2 API after micronization,Peak area % = 0.075%
same,"HPLC peak (percentage of peak area), KDR2-2",[3]; [5],Peak area % = 99.820%
same,"HPLC peak (percentage of peak area), Impurity 1",[3]; [5],Peak area % = 0.08%
same,"HPLC peak (percentage of peak area), Impurity 2",[3]; [5],Peak area % = 0.101%
